MIC90 data for 4 compounds are collected here from ChEMBL document CHEMBL5046254, “Mycobactin Analogues with Excellent Pharmacokinetic Profile Demonstrate Potent Antitubercular Specific Activity and Exceptional Efflux Pump Inhibition” (J Med Chem, 2022).

≈ marks a conversion by molar mass, not a printed value.

Experiment [1] concerns Mycobacterium tuberculosis variant bovis. As to the kind of experiment: Antimicrobial activity against Mycobacterium bovis BCG ATCC 35734 cultured in GAST-Fe media incubated for 5 days by resazurin microtiter assay. It is filed as functional. The settings on record: BCG ATCC 35734, 120 h, time 5 day. (Resazurin is reduced to fluorescent resorufin, in cell work by metabolically active cells.)

Experiment [2] has the same test system. As to the kind of experiment: Antimicrobial activity against Mycobacterium bovis BCG ATCC 35734 cultured in GAST media incubated for 5 days by resazurin microtiter assay. Format: functional. The note with it: BCG ATCC 35734, 120 h, time 5 day.

Usually MIC90 stands for an inhibitory concentration at the 90% level, which refers to growth in some studies and to a panel of isolates in others. `NC(=S)N1N=C(c2ccccc2O)CC1c1ccccc1` (stereo not drawn): the results for the MIC90 in experiment [1] and in experiment [2] were 32 mg/L (≈ 108 µM) and 16 mg/L (≈ 53.8 µM), respectively.

`NC(=S)N1N=C(c2ccccc2O)CC1c1ccc(O)cc1` (stereo not drawn): the MIC90 in experiment [1] was found to be 32 mg/L (≈ 102 µM); in experiment [2], 16 mg/L (≈ 51.1 µM).

As to `Oc1ccccc1C1=NNC(c2ccc(Cl)cc2)C1` (stereo not drawn), the MIC90 in experiment [1] was found to be 32 mg/L (≈ 117 µM); in experiment [2], 8 mg/L (≈ 29.3 µM).

Turning to `Oc1ccccc1C1=NNC(c2ccc(Br)cc2)C1` (stereo not drawn), the figures for the MIC90 in experiment [1] and in experiment [2] were 64 mg/L (≈ 202 µM) and 8 mg/L (≈ 25.2 µM), respectively.
